Values after ≈ are worked out from the molar mass of the structure shown. Blank lines part the entries; values can stand above or below the molecule they belong to.
What was measured:
[1] = Solubility of compound at pH 6.8; format: physicochemical; conditions: buffer
[2] = AUC(0 to t) in C57BL/6 mouse at 3 mg/kg, ip measured upto 24 hrs by HPLC-MS analysis; format: ADME, organism-based; parameters: time < 24 hrs, dose 3 mg/kg, route ip; conditions: in vivo
[3] = Ratio of drug concentration in brain to plasma in C57BL/6 mouse at 30 mg/kg, po measured at 3 hrs; format: ADME, organism-based; conditions: read-out: BPR
[4] = MRT(0 to t) in Sprague-Dawley rat at 3 mg/kg, po and 1 mg/kg, iv measured upto 24 hrs by HPLC-MS analysis; format: ADME, organism-based; conditions: in vivo
[5] = Volume of distribution at steady state in Sprague-Dawley rat at 3 mg/kg, po and 1 mg/kg, iv measured upto 24 hrs by HPLC-MS analysis; format: ADME, organism-based; conditions: in vivo
[6] = Volume of distribution at steady state in C57BL/6 mouse at 1 mg/kg, iv and 3 mg/kg, ip measured upto 24 hrs by HPLC-MS analysis; format: ADME, organism-based; conditions: in vivo, read-out: Vdss
[7] = biological target: Phosphatidylinositol 4,5-bisphosphate 3-kinase catalytic subunit alpha isoform (Homo sapiens, UniProt P42336); experiment: Inhibition of PI3Kalpha (unknown origin)
Sequence of Phosphatidylinositol 4,5-bisphosphate 3-kinase catalytic subunit alpha isoform (P42336 whole entry, canonical isoform): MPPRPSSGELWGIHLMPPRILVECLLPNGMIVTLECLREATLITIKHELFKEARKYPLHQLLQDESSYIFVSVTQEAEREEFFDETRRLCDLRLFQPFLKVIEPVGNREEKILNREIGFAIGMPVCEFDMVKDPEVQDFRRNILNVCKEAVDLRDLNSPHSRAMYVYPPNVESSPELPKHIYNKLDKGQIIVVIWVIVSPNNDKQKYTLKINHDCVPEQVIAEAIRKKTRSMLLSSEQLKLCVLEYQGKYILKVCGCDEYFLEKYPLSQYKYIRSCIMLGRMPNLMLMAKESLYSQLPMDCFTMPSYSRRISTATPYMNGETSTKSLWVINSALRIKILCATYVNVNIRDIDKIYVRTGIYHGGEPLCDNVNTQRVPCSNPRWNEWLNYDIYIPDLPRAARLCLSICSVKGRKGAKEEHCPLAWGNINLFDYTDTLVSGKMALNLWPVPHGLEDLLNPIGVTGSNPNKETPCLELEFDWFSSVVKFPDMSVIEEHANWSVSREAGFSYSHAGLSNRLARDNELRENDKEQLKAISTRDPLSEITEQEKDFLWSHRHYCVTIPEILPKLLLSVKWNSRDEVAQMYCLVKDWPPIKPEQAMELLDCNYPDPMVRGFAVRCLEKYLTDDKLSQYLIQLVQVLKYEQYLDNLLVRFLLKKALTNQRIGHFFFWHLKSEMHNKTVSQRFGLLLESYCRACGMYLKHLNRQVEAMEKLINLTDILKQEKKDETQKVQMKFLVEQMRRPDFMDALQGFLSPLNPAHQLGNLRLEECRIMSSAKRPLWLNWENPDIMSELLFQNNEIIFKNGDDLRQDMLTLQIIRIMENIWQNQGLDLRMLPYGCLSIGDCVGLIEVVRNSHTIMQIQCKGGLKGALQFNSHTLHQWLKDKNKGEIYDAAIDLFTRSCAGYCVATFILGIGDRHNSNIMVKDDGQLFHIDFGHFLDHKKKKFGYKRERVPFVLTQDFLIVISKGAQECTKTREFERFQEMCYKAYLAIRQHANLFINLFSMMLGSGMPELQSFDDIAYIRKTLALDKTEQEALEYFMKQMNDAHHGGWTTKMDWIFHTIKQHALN

[8] = Drug concentration in C57BL/6 mouse brain at 10 mg/kg, po measured after 1 hr; format: ADME, organism-based; conditions: read-out: Ct
[9] = Drug concentration in C57BL/6 mouse plasma at 10 mg/kg, po measured after 24 hrs; format: ADME, organism-based
Cytochrome P450 3A4 [10] = biological target: T1, Cytochrome P450 3A4 (Homo sapiens, UniProt P08684); experiment: Inhibition of CYP3A4 (unknown origin); format: ADME
T1 sequence (P08684 whole entry): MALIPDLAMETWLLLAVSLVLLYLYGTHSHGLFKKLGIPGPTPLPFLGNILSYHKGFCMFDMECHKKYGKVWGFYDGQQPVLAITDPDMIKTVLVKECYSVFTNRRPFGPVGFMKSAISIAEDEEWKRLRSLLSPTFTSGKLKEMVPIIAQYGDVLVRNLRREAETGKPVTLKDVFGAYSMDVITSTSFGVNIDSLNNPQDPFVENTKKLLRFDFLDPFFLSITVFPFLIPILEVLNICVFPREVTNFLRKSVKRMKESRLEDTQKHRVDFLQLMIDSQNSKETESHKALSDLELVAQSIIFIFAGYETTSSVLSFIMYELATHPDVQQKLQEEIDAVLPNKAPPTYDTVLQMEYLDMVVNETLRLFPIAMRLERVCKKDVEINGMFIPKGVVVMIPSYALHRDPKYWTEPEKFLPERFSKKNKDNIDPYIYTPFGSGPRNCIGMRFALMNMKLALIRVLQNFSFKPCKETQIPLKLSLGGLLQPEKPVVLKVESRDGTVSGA

[11] = Drug concentration in C57BL/6 mouse plasma at 30 mg/kg, po measured after 1 hr; format: ADME, organism-based
[12] = Half life in C57BL/6 mouse at 1 mg/kg, iv and 3 mg/kg, ip measured upto 24 hrs by HPLC-MS analysis; format: ADME, organism-based; conditions: in vivo
[13] = MRT(0 to t) in C57BL/6 mouse at 1 mg/kg, iv and 3 mg/kg, ip measured upto 24 hrs by HPLC-MS analysis; format: ADME, organism-based; conditions: in vivo
[14] = Drug concentration in C57BL/6 mouse brain at 10 mg/kg, po measured after 3 hrs; format: ADME, organism-based; conditions: read-out: Ct
[15] = Ratio of drug concentration in brain to plasma in C57BL/6 mouse at 30 mg/kg, po measured at 1 hr; format: ADME, organism-based; conditions: brain and plasma, read-out: BPR
[16] = Genotoxicity in human TK6 cells assessed as micronuclei formation in presence of S9 fraction by micronucleus test; format: toxicity, subcellular
[17] = biological target: 3',5'-cyclic-AMP phosphodiesterase 4D (Homo sapiens, UniProt Q08499); experiment: Inhibition of PDE4D (unknown origin)
Sequence of 3',5'-cyclic-AMP phosphodiesterase 4D (Q08499 whole entry): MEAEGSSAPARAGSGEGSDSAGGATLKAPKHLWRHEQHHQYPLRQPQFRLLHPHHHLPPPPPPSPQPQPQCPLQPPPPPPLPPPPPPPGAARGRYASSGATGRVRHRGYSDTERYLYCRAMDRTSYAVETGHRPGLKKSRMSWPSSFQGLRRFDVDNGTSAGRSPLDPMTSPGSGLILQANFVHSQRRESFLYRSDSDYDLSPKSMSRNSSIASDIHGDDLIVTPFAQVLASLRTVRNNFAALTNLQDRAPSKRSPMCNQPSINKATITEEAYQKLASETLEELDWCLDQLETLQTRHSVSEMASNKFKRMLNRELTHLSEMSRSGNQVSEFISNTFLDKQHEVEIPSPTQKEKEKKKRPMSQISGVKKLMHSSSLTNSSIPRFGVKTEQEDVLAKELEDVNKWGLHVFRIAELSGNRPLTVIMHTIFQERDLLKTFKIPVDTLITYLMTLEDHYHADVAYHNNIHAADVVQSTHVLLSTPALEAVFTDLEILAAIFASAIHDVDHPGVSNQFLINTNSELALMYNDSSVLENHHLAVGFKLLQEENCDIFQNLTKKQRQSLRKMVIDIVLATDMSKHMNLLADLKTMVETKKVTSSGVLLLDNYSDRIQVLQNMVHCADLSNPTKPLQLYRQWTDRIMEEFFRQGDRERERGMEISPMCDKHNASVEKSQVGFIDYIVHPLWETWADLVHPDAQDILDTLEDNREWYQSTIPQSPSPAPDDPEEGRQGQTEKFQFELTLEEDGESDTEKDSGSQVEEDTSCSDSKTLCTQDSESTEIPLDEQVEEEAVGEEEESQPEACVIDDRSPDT

[18] = Drug concentration in C57BL/6 mouse brain at 30 mg/kg, po measured after 3 hrs; format: ADME, organism-based; conditions: read-out: Ct
[19] = Metabolic stability in rat liver microsomes assessed as intrinsic clearance at 1 uM incubated for 30 mins in presence of NADPH by LC-MS/MS analysis; format: ADME, Microsome; conditions: read-out: CLH
[20] = Efflux ratio of apparent permeability across basolateral to apical side over apical to basolateral side in MDCK-MDR1 cells; format: ADME, cell-based, Canis lupus familiaris; conditions: dog
[21] = biological target: Phosphatidylinositol 4,5-bisphosphate 3-kinase catalytic subunit beta isoform (Homo sapiens, UniProt P42338); experiment: Inhibition of PI3Kbeta (unknown origin)
Sequence of Phosphatidylinositol 4,5-bisphosphate 3-kinase catalytic subunit beta isoform (P42338 whole entry, canonical isoform): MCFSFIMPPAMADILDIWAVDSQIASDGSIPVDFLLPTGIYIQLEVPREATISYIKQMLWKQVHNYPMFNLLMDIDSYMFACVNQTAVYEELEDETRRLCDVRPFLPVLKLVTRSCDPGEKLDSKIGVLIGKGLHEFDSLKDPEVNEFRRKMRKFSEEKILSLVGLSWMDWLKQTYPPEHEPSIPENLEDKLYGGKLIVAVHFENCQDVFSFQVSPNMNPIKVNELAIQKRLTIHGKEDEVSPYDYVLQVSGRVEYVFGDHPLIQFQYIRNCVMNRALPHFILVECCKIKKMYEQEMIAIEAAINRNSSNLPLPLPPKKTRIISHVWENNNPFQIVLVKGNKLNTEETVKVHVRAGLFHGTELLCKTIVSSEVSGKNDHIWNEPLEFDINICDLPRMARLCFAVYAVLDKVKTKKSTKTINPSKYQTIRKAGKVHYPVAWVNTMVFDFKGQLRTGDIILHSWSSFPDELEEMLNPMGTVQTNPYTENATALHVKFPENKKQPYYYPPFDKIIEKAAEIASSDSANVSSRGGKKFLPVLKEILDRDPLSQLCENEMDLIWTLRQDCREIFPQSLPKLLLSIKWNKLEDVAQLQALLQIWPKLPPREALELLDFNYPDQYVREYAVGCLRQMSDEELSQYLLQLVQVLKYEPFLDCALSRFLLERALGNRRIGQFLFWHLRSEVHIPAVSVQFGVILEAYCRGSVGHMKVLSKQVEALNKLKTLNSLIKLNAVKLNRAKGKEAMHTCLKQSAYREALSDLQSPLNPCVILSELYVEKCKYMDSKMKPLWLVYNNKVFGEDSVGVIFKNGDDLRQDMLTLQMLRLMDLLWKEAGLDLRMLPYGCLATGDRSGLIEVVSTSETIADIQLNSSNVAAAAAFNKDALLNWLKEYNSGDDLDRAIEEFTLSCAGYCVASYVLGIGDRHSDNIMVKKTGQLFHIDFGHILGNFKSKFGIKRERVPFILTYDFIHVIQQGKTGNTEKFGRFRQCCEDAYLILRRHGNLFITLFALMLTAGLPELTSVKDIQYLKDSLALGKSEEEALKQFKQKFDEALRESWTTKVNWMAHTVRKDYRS

[22] = Metabolic stability in dog liver microsomes assessed as intrinsic clearance at 1 uM incubated for 30 mins in presence of NADPH by LC-MS/MS analysis; format: ADME, Canis lupus familiaris, Microsome; conditions: read-out: CLH
Cytochrome P450 3A4 [23] = biological target: T1, Cytochrome P450 3A4; experiment: Inhibition of CYP3A4 (unknown origin) assessed as Kobs; format: ADME
[24] = Plasma protein binding in Sprague-Dawley rat at 5 uM measured for 4 hrs by equilibrium dialysis method based LC/MS/MS analysis; format: ADME, cell-free; conditions: read-out: PPB (converted)
[25] = Ratio of drug concentration in brain to plasma in Sprague-Dawley rat at 3 mg/kg, po measured at 1 hr by HPLC-MS analysis; format: ADME, organism-based; conditions: brain and plasma, read-out: BPR
[26] = Bioavailability in Sprague-Dawley rat at 3 mg/kg, po and 1 mg/kg, iv measured upto 24 hrs by HPLC-MS analysis; format: ADME, organism-based; conditions: in vivo
[27] = biological target: Serine/threonine-protein kinase ATR (Homo sapiens, UniProt Q13535); experiment: Inhibition of ATR (unknown origin)-driven CHK1 phosphorylation
[28] = Drug concentration in C57BL/6 mouse plasma at 30 mg/kg, po measured after 24 hrs; format: ADME, organism-based
Cytochrome P450 2D6 = Cytochrome P450 2D6 (Homo sapiens, UniProt P10635); experiment: Inhibition of CYP2D6 (unknown origin); format: ADME
Sequence of Cytochrome P450 2D6 (P10635 whole entry): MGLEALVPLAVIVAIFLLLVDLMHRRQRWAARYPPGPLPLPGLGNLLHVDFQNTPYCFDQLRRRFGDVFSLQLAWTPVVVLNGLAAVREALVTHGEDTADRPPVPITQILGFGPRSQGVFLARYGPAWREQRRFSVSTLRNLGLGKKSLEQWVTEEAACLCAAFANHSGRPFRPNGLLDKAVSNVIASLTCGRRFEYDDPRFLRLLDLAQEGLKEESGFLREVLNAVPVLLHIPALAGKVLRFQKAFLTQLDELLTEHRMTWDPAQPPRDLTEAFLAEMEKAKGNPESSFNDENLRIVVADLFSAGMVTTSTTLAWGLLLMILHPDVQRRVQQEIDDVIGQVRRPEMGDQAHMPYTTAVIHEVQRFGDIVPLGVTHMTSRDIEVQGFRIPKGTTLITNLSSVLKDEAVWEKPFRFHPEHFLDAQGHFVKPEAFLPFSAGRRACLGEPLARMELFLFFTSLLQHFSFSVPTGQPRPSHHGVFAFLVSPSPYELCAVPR

[29] = Metabolic stability in cynomolgus monkey liver microsomes assessed as intrinsic clearance at 1 uM incubated for 30 mins in presence of NADPH by LC-MS/MS analysis; format: ADME, Macaca fascicularis, Microsome; conditions: read-out: CLH
[30] = Half life in Sprague-Dawley rat at 3 mg/kg, po and 1 mg/kg, iv measured upto 24 hrs by HPLC-MS analysis; format: ADME, organism-based; conditions: in vivo
[31] = Ratio of drug concentration in brain to plasma in Sprague-Dawley rat at 1 mg/kg, iv measured at 1 hr by HPLC-MS analysis; format: ADME, organism-based; conditions: brain and plasma, read-out: BPR
[32] = Protein binding in Sprague-Dawley rat brain at 5 uM measured for 4 hrs by equilibrium dialysis method based LC/MS/MS analysis; format: ADME, tissue-based; conditions: read-out: PB (converted)
[33] = Phototoxicity against mouse BALB/3T3 clone A31 cells assessed as reduction in cell viability incubated for 1 hr followed by irradiated with 5 J/cm^2 of light dose measured after 24 hrs by neutral red uptake assay; format: toxicity, cell-based; conditions: balb/3t3 clone a31, 1 h
[34] = biological target: Serine/threonine-protein kinase mTOR (Mus musculus) (UniProt Q9JLN9); experiment: Inhibition of mTOR in Tsc1 knockout mouse neurons assessed as reduction in phosphorylated S6 level incubated for 4 hrs by Hoechst staining based immunofluorescence analysis; format: cell-based; conditions: Neuron, dose 5.0 µM
[35] = Metabolic stability in human liver microsomes assessed as intrinsic clearance at 1 uM incubated for 30 mins in presence of NADPH by LC-MS/MS analysis; format: ADME, Microsome; conditions: read-out: CLH
[36] = Ratio of drug concentration in brain to plasma in C57BL/6 mouse at 10 mg/kg, po measured at 1 hr; format: ADME, organism-based; conditions: brain and plasma, read-out: BPR
[37] = AUC(0 to t) in Sprague-Dawley rat at 3 mg/kg, po measured upto 24 hrs by HPLC-MS analysis; format: ADME, organism-based; parameters: dose 3 mg/kg, time < 24 hrs, route po; conditions: in vivo
[38] = Tmax in Sprague-Dawley rat at 3 mg/kg, po and 1 mg/kg, iv measured upto 24 hrs by HPLC-MS analysis; format: ADME, organism-based; conditions: in vivo
[39] = Metabolic stability in mouse liver microsomes assessed as intrinsic clearance at 1 uM incubated for 30 mins in presence of NADPH by LC-MS/MS analysis; format: ADME, Microsome; conditions: read-out: CLH
[40] = Drug concentration in C57BL/6 mouse brain at 30 mg/kg, po measured after 24 hrs; format: ADME, organism-based; conditions: read-out: Ct
Cytochrome P450 2C9 = Cytochrome P450 2C9 (Homo sapiens, UniProt P11712); experiment: Inhibition of CYP2C9 (unknown origin); format: ADME
Sequence of Cytochrome P450 2C9 (P11712 whole entry): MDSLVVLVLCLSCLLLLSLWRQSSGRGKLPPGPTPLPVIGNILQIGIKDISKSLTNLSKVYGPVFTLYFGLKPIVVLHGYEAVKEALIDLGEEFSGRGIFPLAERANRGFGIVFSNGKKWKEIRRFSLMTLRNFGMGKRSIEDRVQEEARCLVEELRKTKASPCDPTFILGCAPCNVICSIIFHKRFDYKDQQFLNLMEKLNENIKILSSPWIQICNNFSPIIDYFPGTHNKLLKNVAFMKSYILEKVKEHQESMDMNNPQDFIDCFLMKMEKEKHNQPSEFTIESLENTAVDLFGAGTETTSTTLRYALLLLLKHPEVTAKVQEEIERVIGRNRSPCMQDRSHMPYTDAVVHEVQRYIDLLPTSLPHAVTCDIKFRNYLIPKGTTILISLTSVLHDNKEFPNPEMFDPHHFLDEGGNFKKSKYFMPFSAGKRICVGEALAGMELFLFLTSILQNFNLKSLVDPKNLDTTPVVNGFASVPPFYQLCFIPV

[41] = Genotoxicity in human TK6 cells assessed as micronuclei formation in absence of S9 fraction by micronucleus test; format: toxicity, cell-based

solubility [1]: 180 µg/mL (≈ 456 µM)
AUC(0-t) at 24 h [2]: 6.66 µM·h
Kp at 3 h [3]: 0.65
MRT last at 24 h [4]: 2.3 h
Vdss [5]: 0.7 L/kg
Vd [6]: 2.6 L/kg
IC50 [7]: > 10 µM
concentration at 1 h [8]: 1490 nM
concentration at 24 h [9]: 4 nM
IC50 (Cytochrome P450 3A4 [10]): > 50 µM
concentration at 1 h [11]: 3930 nM
half-life [12]: 2 h
MRT last at 24 h [13]: 2.3 h
concentration at 3 h [14]: 1110 nM
Kp at 1 h [15]: 1.03
IC50 [17]: 17 µM
concentration at 3 h [18]: 2720 nM
microsomal CLint at 1 µM [19]: 27 µL/min/mg
efflux ratio [20]: 0.48
IC50 [21]: > 10 µM
microsomal CLint at 1 µM [22]: 19 µL/min/mg
Kobs (Cytochrome P450 3A4 [23]): 0.032 min⁻¹
fraction unbound at 4 h, 5 µM [24]: 0.134
Kp at 1 h [25]: 0.72
bioavailability [26]: 122%
IC50 [27]: 17.2 µM
concentration at 24 h [28]: 1120 nM
IC50 (Cytochrome P450 2D6): > 50 µM
microsomal CLint at 1 µM [29]: 115 µL/min/mg
half-life [30]: 2.6 h
Kp at 1 h [31]: 0.48
fraction unbound at 4 h, 5 µM [32]: 0.035
inhibition [34]: Dose-Dependent Effect
microsomal CLint at 1 µM [35]: 22 µL/min/mg
Kp at 1 h [36]: 0.6
AUC(0-t) at 24 h [37]: 29.6 µM·h
Tmax [38]: 1.3 h
microsomal CLint at 1 µM [39]: 24 µL/min/mg
concentration at 24 h [40]: 790 nM
IC50 (Cytochrome P450 2C9): > 50 µM
SMILES: C[C@@H]1COCCN1c1cc(N2CCOC[C@@H]2C)nc2[nH]c(-c3ccccn3)nc12
Activity [16]: Non-Toxic
Activity [33]: Non-Toxic
Activity [41]: Non-Toxic

solubility [1]: 20 µg/mL (≈ 49.9 µM)
AUC(0-t) at 24 h [2]: 11.7 µM·h
Kp at 3 h [3]: 0.75
MRT last at 24 h [4]: 2.2 h
Vdss [5]: 2.3 L/kg
Vd [6]: 2.8 L/kg
IC50 [7]: > 10 µM
concentration at 1 h [8]: 4270 nM
concentration at 24 h [9]: 211 nM
IC50 (Cytochrome P450 3A4 [10]): > 50 µM
concentration at 1 h [11]: 10200 nM
half-life [12]: 2.7 h
MRT last at 24 h [13]: 3.4 h
concentration at 3 h [14]: 3250 nM
Kp at 1 h [15]: 1.29
IC50 [17]: 6.3 µM
concentration at 3 h [18]: 6320 nM
microsomal CLint at 1 µM [19]: 21 µL/min/mg
efflux ratio [20]: 0.87
IC50 [21]: > 10 µM
microsomal CLint at 1 µM [22]: 10 µL/min/mg
Kobs (Cytochrome P450 3A4 [23]): 0.021 min⁻¹
fraction unbound at 4 h, 5 µM [24]: 0.18
Kp at 1 h [25]: 0.33
bioavailability [26]: 107%
IC50 [27]: 14.4 µM
concentration at 24 h [28]: 7020 nM
IC50 (Cytochrome P450 2D6): > 50 µM
microsomal CLint at 1 µM [29]: 31 µL/min/mg
half-life [30]: 3 h
Kp at 1 h [31]: 0.35
fraction unbound at 4 h, 5 µM [32]: 0.086
inhibition [34]: Dose-Dependent Effect
microsomal CLint at 1 µM [35]: 3.4 µL/min/mg
Kp at 1 h [36]: 0.97
AUC(0-t) at 24 h [37]: 6.45 µM·h
Tmax [38]: 1.5 h
microsomal CLint at 1 µM [39]: 13 µL/min/mg
concentration at 24 h [40]: 4650 nM
IC50 (Cytochrome P450 2C9): > 50 µM
SMILES: C[C@@H]1COCCN1c1cc(N2CCOC[C@@H]2C)nc2[nH]c(-c3cscn3)nc12
Activity [16]: Non-Toxic
Activity [33]: Toxic
Activity [41]: Non-Toxic
